Assay results from patent publication US20220023216A1, “INSTANTLY SOLUBLE PARTICLE AND METHOD FOR PRODUCING THE SAME” (RICOH COMPANY, LTD., priority 2019, published 2022).
Converted amounts (≈) assume the structure as drawn.

Columns and labels:
Type in all cases: physicochemical
[1] = Dissolution test of Test Example 1 (erlotinib, physiological saline); settings: physiological saline 100 mL, 25 degrees Celsius, 50 rpm
Procedure: (§1) An active pharmaceutical ingredient of erlotinib (1.6 mg) and the particle 9 (16 mg) obtained in Example 9 were each added to a physiological saline solution (0.9 w/v %) (100 mL) as a solvent, and were dissolved for 30 minutes under the following conditions: a temperature of the solution: 25 degrees Celsius; and a stirring rate: 50 rpm. Then, an amount of the pharmaceutical agent dissolved over time was quantified through liquid chromatography (detector: UV/Vis detector).

[2] = Solubility of the poorly water-soluble (pharmaceutical) compound, Table 1; settings: poorly-water-soluble compound (pharmaceutical compound) itself
[3] = Dissolution test of Test Example 3 (ibuprofen, physiological saline); settings: physiological saline 100 mL, 25 degrees, 50 rpm
Excerpt: Then, an amount of the pharmaceutical agent dissolved over time was quantified through liquid chromatography (detector: UV/Vis detector).

[4] = Dissolution test of Test Example 2 (imatinib, water); settings: water 100 mL, 25 degrees Celsius, 50 rpm
Procedure: as §1, with “imatinib (7.35” for “erlotinib (1.6”, “10 (73.5” for “9 (16”, “10” for “9”, “water” for “a physiological saline solution (0.9 w/v %)”, “mL),” for “mL) as a solvent,”

In the case of `C#Cc1cccc(Nc2ncnc3cc(OCCOC)c(OCCOC)cc23)c1` [Erlotinib, erlotinib], the Dissolution amount ([1]; 1 min) is reported as “Not detected”, the Dissolution amount ([1]; 3 min) is reported as 0.8 mg/mL and the Dissolution amount ([1]; 5 min) is reported as 1 mg/mL. It also gave a Dissolution amount ([1]; 15 min) of 1.1 mg/mL and a Dissolution amount ([1]; 30 min) of 2 mg/mL.
For `CC(C)Cc1ccc(C(C)C(=O)O)cc1` (stereo not drawn) [Ibuprofen, ibuprofen], the solubility [2] was 20 µg/mL (≈ 97 µM), the Dissolution amount ([3]; 2 min) was “Not detected” and the Dissolution amount ([3]; 5 min) was “Not detected”. For the same molecule, the Dissolution amount ([3]; 15 min) was 5.4 mg/mL and the Dissolution amount ([3]; 30 min) was 9.7 mg/mL.
`Cc1ccc(NC(=O)c2ccc(CN3CCN(C)CC3)cc2)cc1Nc1nccc(-c2cccnc2)n1` [Imatinib, imatinib] showed a Dissolution amount ([4]; 1 min) of 9.7 mg/mL, a Dissolution amount ([4]; 3 min) of 13.4 mg/mL and a Dissolution amount ([4]; 5 min) of 18 mg/mL. For the same molecule, the Dissolution amount ([4]; 15 min) was 19.8 mg/mL and the Dissolution amount ([4]; 30 min) was 13.7 mg/mL.
